Assay results: patent publication US10568344B2, “Methods of improving animal performance” (Novozymes A/S, priority 2015, dated 2020)
Read-outs that look alike come from different tables or passages of the source. Marks after values point to notes of the source that are not given here.

Legend:
[1] = In vivo piglet trial, growth performance; design: species or system weaned piglets
Experimental: The trial was performed from Oct. 23 to Dec. 4, 2014 at the Research Center for Animal Nutrition (DSM Nutritional Products France, F-68305 Village-Neuf) according to the official French guidelines for experiments with live animals. One hundred and four castrated male crossbred (Large-White (female)×Redon (male)) weaned piglets having 28 days of age supplied by the commercial farm “[…] du Rhin” located in Balgau (France), were used in a 42-day experiment. The initial bodyweight of the piglets was 7.88±0.675 kg. They were sorted by body weight into 32 groups of 3 or 4 piglets and randomly allotted to each dietary treatment. Each group of animals was placed in one flat-deck cages and allocated to one of the different treatments. Each treatment was replicated with 8 cages using a total of 26 animals (6 cages of 3 animals/treatment and 2 cages of 4 animals/treatment) per treatment. […] Animals were housed in an environmentally controlled room. Room temperature was initially 27° C. and was lowered weekly by about 2° C. until 21-22° C. and relative humidity percentage was 50%. The experimental diets (Pre-Starter and Starter) were fed ad libitum in two feeding phases from day 0 to 14 (phase 1, Pre-starter) and day 14 to 42 (phase 2, Starter). The ingredient composition and the calculated nutrient levels of the experimental diets for phases 1 and 2 are presented in table 11. Both diets were formulated to meet the animals' requirements according NRC (2012) and were fed in pelleted form. Pelleting conditions were at 70° C. for 30 seconds. […] No additional enzymes (e.g. phytase) were added to the feed. […] Appropriate amount of the liquid preparations of lysozyme was diluted in water and sprayed onto the respective pelleted feed to get the final concentrations in the feed corresponding to the different treatments. For procedural balance of all treatments the same volume of water were also sprayed onto the pellets of the control diets. Body weight of the individual animals and feed consumption per pen were recorded on days 14 and 42 of the study. […] The experimental unit was the piglet, except for ADFI and FCR which were measured by cage, and in both cases, treatment was used as class variable. One-factorial ANOVA and Student-Newman-Keuls test was used to assess differences among means in treatment groups.

[2] = In vivo broiler trial 2, growth performance; design: species or system male broiler chickens; details: for FCR / FCR, Relative to C (%) / Feed intake / Feed intake, Relative to C (%) / Weight gain / Weight gain, Relative to C (%): 10 mg/kg feed; for Improvement of FCR compared to the control diet / Improvement of weight gain compared to the control diet: 10 mg/kg
Experimental: No additional enzymes (e.g. phytase) were added to the feed. The experimental diets (Starter and Grower) were based on soybean meal, wheat and rye (12%) as main ingredients (Table 6). The diets were formulated to contain 222 g crude protein and 12.5 MJ/kg MEN for the starter period and 204 g crude protein and 12.7 MJ/kg MEN for the grower period.

[3] = In vivo broiler trial 1, growth performance; design: species or system male broiler chickens (ROSS PM3); details: for Improvement of FCR compared to the control diet / Improvement of weight gain compared to the control diet: 10 mg/kg; for FCR / FCR, Relative to C (%) / Feed intake / Feed intake, Relative to C (%) / Weight gain / Weight gain, Relative to C (%): 10 mg/kg feed
[4] = In vivo broiler trial 3, growth performance; design: species or system male broiler chickens; Motality: unit not given here
Experimental: The in vivo trial was carried out as described in example 7, except the feed was supplemented with the GH25 lysozyme (SEQ ID NO: 1) at 12.5 or 25 mg per kg feed, the GH24 lysozyme (SEQ ID NO: 4) at 12.5 or 25 mg per kg feed or with Avilamycin at an inclusion level of 10 mg/kg. No additional enzymes (e.g. phytase) were added to the feed. The experimental diets (Starter, Grower and Finisher) were based on soybean meal, wheat and rye (12%) as main ingredients (Table 8). The diets were formulated to contain 225 g crude protein and 12.5 MJ/kg MEN for the starter period, 215 g crude protein and 12.8 MJ/kg MEN for the grower period and 205 g crude protein and 13.0 MJ/kg MEN for the finisher period.

[5] = system: Clostridium perfringens DSM756; format: cell-based; details: for Diameter of clearing zone: lysozymes 100 μg/ml, bacitracin 50 μg/ml
[6] = system: Exiguobacterium undae (DSM14481); test: Lysozyme activity turbidity assay (optical density drop); format: biochemical; details: pH 6
[7] = system: Micrococcus lysodeikticus ATTC No. 4698; test: as above; details: pH 6
[8] = Finisher (d 36-42), 10 mg/kg feed
[9] = Grower (d 22-36), 10 mg/kg feed
[10] = Starter (d 1-22), 10 mg/kg feed
[11] = Whole period (d 1-42), 10 mg/kg feed

## O=C(O)c1ccccc1 [VevoVital, benzoic acid]
[1]; day 0-14, 5000 mg/kg feed
  ADFI, % relative NC: 98.6%
  ADFI, Mean: 355 g/day
  ADWG, % relative NC: 104.8%
  ADWG, Mean: 304 g/day
  FCR, % relative NC: 94.2%
  FCR, Mean: 1.168^a
[1]; day 0-42, 5000 mg/kg feed
  ADFI, % relative NC: 96.6%
  ADFI, Mean: 709^ab g/d
  ADWG, % relative NC: 105.4%
  ADWG, Mean: 526 g/day
  EPEF, % relative NC: 116.2%
  EPEF, Mean: 394
  FCR, % relative NC: 90.4%
  FCR, Mean: 1.342^a
[1]; day 14-42, 5000 mg/kg feed
  ADFI, % relative NC: 95.3%
  ADFI, Mean: 886^ab g/d
  ADWG, % relative NC: 105.8%
  ADWG, Mean: 638 g/day
  FCR, % relative NC: 90.5%
  FCR, Mean: 1.398^a
[1]; overall period (day 0 to day 42), 5000 mg/kg
  Improvement on FCR compared to the negative control: 9.6%
[1]; pre-starter period, 5000 mg/kg
  Improvement of ADWG compared to NC: 4.8%
[1]; starter period, day 15 to day 42, 5000 mg/kg
  Improvement to FCR compared to NC: 9.5%
[1]; starter period, 5000 mg/kg
  Improvement of ADWG compared to NC: 5.8%
[1]; whole period, 5000 mg/kg
  Improvement of ADWG compared to NC: 5.4%

## COC[C@H]1O[C@@H](OC2OC[C@@H]3O[C@]4(O[C@H]3[C@H]2OC(=O)C(C)C)O[C@H](C)[C@@](O)(C(C)=O)[C@@H]2OCO[C@H]24)[C@@H](OC)[C@@H](O)[C@@H]1O[C@@H]1O[C@H](C)[C@H](OC)[C@H](O[C@H]2C[C@@]3(C)OC4(C[C@@H](O)[C@H](O[C@H]5C[C@@H](O)[C@H](OC(=O)c6c(C)c(Cl)c(O)c(Cl)c6OC)[C@@H](C)O5)[C@@H](C)O4)O[C@@H]3[C@@H](C)O2)[C@H]1O (stereo partly drawn) [Avilamycin, reference compound]
[2]; Grower (d 22-36)
  FCR: 1.621^b
  FCR, Relative to C (%): 94.2%
  Feed intake: 2599 g/b
  Feed intake, Relative to C (%): 95.2%
  Weight gain: 1605 g/b
  Weight gain, Relative to C (%): 101.2%
[2]; Starter (d 1-22)
  FCR: 1.421^a
  FCR, Relative to C (%): 103%
  Feed intake: 1517^a g/b
  Feed intake, Relative to C (%): 103.1%
  Weight gain: 1070 g/b
  Weight gain, Relative to C (%): 100.2%
[2]; Whole period (d 1-36)
  FCR: 1.537^c
  FCR, Relative to C (%): 97.4%
  Feed intake: 4111 g/b
  Feed intake, Relative to C (%): 98.1%
  Weight gain: 2675 g/b
  Weight gain, Relative to C (%): 100.8%
[2]; day 1 to day 36
  Improvement of FCR compared to the control diet: 2.6%
[2]; grower period
  Improvement of FCR compared to the control diet: 5.8%
  Improvement of weight gain compared to the control diet: 1.2%
[2]; starter period
  Improvement of FCR compared to the control diet: No improvement
  Improvement of weight gain compared to the control diet: No improvement
[3]
  Improvement of FCR compared to the control diet: 2.3%
[3]; Grower (d 22-36)
  FCR: 1.694^abc
  FCR, Relative to C (%): 97.7%
  Feed intake: 2976^ab g/b
  Feed intake, Relative to C (%): 97.6%
  Weight gain: 1757 g/b
  Weight gain, Relative to C (%): 99.8%
[3]; Starter (d 1-22)
  FCR: 1.695^c
  FCR, Relative to C (%): 93.3%
  Feed intake: 1943 g/b
  Feed intake, Relative to C (%): 97.4%
  Weight gain: 1147 g/b
  Weight gain, Relative to C (%): 104.1%
[3]; Whole period (d 1-36)
  FCR: 1.694^bc
  FCR, Relative to C (%): 96%
  Feed intake: 4918^ab g/b
  Feed intake, Relative to C (%): 97.5%
  Weight gain: 2903 g/b
  Weight gain, Relative to C (%): 101.5%
[3]; day 1 to day 36
  Improvement of FCR compared to the control diet: 4%
  Improvement of weight gain compared to the control diet: 1.5%
[3]; starter period
  Improvement of weight gain compared to the control diet: 4.1%
[4]; [8]
  FCR: 1.982
  FCR, Relative to C (%): 101.1%
  Feed intake: 1460 g/b
  Feed intake, Relative to C (%): 98.2%
  Weight gain: 738 g/b
  Weight gain, Relative to C (%): 97.0%
[4]; [9]
  FCR: 1.683
  FCR, Relative to C (%): 97.7%
  Feed intake: 2242 g/b
  Feed intake, Relative to C (%): 98.1%
  Weight gain: 1334 g/b
  Weight gain, Relative to C (%): 100.4%
[4]; [10]
  FCR: 1.452
  FCR, Relative to C (%): 100.8%
  Feed intake: 1593 g/b
  Feed intake, Relative to C (%): 101.0%
  Weight gain: 1102 g/b
  Weight gain, Relative to C (%): 100.6%
[4]; [11]
  EPEF: 397
  EPEF, Relative to C (%): 95.0%
  FCR: 1.669
  FCR, Relative to C (%): 99.3%
  Feed intake: 5312 g/b
  Feed intake, Relative to C (%): 99.3%
  Motality: 12.5
  Weight gain: 3184 g/b
  Weight gain, Relative to C (%): 99.9%
[4]; whole period, 10 mg/kg
  EPEF worse than NC diet by: 5.0%
  FCR improvement compared to NC diet: 0.7%

## Bacitracin zinc salt [reference compound]
[5]; Experiment 1, 1/2 MHB pH 6
  Diameter of clearing zone: 13 mm
[5]; Experiment 1, 1/10 MHB pH 7
  Diameter of clearing zone: 23 mm
[5]; Experiment 2, 1/2 MHB pH 6
  Diameter of clearing zone: 11 mm
[5]; Experiment 2, 1/10 MHB pH 7
  Diameter of clearing zone: 20 mm

## SEQ ID NO: 5: mature amino acid sequence of a wild type GH22 lysozyme from Gallus gallus (hen egg white lysozyme), Sigma 62971 [reference compound]
[5]; 1/10 MHB, pH7, both experiments
  Inhibition zone: 9-11 mm
[5]; Experiment 1, 1/2 MHB pH 6
  Diameter of clearing zone: 0 mm
[5]; Experiment 1, 1/10 MHB pH 7
  Diameter of clearing zone: 11 mm
[5]; Experiment 2, 1/2 MHB pH 6
  Diameter of clearing zone: 0 mm
[5]; Experiment 2, 1/10 MHB pH 7
  Diameter of clearing zone: 9 mm
[5]; ½ MHB, pH 6, both experiments
  Clearing zone diameter: no zone of inhibition
[6]
  Lysozyme activity as measured by Optical Density Drop: + (pH 6)
[7]
  Lysozyme activity as measured by Optical Density Drop: +++ (pH 6)
